Test [1] deals with T1, GST tagged LXRbeta LBD (ligand binding domain) (Homo sapiens, UniProt P55055).
T1 construct: purchased Invitrogen pv4658.pps
T1 sequence (P55055 222-460 limits assumed): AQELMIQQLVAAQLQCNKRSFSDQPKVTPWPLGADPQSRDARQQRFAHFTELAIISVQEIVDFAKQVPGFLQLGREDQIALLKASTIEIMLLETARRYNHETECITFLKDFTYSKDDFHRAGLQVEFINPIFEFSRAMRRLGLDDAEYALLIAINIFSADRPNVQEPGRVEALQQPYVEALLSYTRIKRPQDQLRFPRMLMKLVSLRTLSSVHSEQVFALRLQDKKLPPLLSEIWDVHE
As to the kind of experiment: LanthaScreen TR-FRET Liver X Receptor Coactivator Assay, LXR beta-LBD (co-activator recruitment; IP and % Emax relative to T0901317). Particulars: for EC50: Inflection Point of co-activator recruitment, LXR beta-LBD, TR-FRET; for Emax: read-out: LXR beta actiivty at max dose (%). Format: biochemical. Put shortly:
(§1)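 Readout is time-resolved FRET between a terbium anti-GST antibody bound to the tagged LBD and a fluorescein-labelled coactivator peptide recruited on ligand binding. Samples are incubated at room temperature before reading, and efficacy is expressed against T0901317.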

Test [2] addresses T2, GST tagged LXRalpha LBD (ligand binding domain) (Homo sapiens, UniProt Q13133).
T2 construct: purchased Invitrogen pv4655
T2 sequence (Q13133 209-447 limits assumed): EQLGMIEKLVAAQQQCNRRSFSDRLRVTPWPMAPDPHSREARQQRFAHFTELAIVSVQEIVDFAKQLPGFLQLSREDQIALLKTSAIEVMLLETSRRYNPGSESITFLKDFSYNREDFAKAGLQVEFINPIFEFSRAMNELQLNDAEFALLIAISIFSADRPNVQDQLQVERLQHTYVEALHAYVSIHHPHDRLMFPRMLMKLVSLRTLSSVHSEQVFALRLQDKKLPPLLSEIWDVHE
As to the kind of experiment: LanthaScreen TR-FRET Liver X Receptor Coactivator Assay, LXR alpha-LBD (co-activator recruitment; IP and % Emax relative to T0901317). The format is biochemical. Particulars: for LXR alpha IP (nM) / EC50: Inflection Point of co-activator recruitment, LXR alpha-LBD, TR-FRET; for Emax: read-out: LXR alpha actiivty at max dose (%). Put shortly: as §1
Background: Time-resolved FRET reads energy transfer from a long-lived donor to a nearby acceptor.

Setting [3] is: efficacy at max dose in relation to reference T0901317, LXR beta-LBD.
Where [4] appears, read: efficacy at max dose in relation to reference T0901317, LXR alpha-LBD.

Usually EC50 stands for the concentration needed to bring the measured effect to its halfway point. High values mean lower potency in that assay, low ones higher potency in that assay.

`CN(C)C(=O)c1ccc(N2CCC(CCCN(C)C(=O)[C@](O)(c3ccccc3)C3CCC3)CC2)nc1Cl` [Example 1-22, (R)-2-chloro-6-(4-(3-(2-cyclobutyl-2-hydroxy-N-methyl-2-phenylaceetamido)propyl)piperidin-1-yl)-N,N-dimethylnicotinamide] had an EC50 in test [1] of 64 nM. The Emax was determined as 94% in test [1] (setting [3]) and 9% in test [2] (setting [4]). Moreover, in test [2], the “LXR alpha IP (nM)” value is recorded as “No IP”.
In turn, `CN(C)C(=O)c1ccc(N2CCC([C@@H]3C[C@H]3CNC(=O)[C@@](O)(c3ccccc3)C(F)(F)F)CC2)cc1Cl` [Example 15-18, 2-chloro-N,N-dimethyl-4-(4-((1S,2R)-2-(((S)-3,3,3-trifluoro-2-hydroxy-2-phenylpropanamido)methyl)cyclopropyl)piperidin-1-yl)benzamide] showed an EC50 in test [1] of 763 nM. Moreover, the “LXR beta actiivty at max dose (%)” value in test [1] (setting [3]) was 66%. In test [2], the “LXR alpha IP (nM)” value is “No IP”. In addition, the “LXR alpha actiivty at max dose (%)” value in test [2] (setting [4]) was 8%.
For the compound `CNC(=O)c1ccc(N2CCC(CC3CC(NC(=O)[C@](O)(c4cccc(OC)c4)C(F)(F)F)C3)CC2)cc1Cl` (stereo partly drawn) [Example 11-5, (R)-2-chloro-N-methyl-4-(4-((3-(3,3,3-trifluoro-2-hydroxy-2-(3-methoxyphenyl)propanamido)cyclobutyl)methyl)piperidin-1-yl)benzamide], the EC50 in test [1] came to 653 nM. Besides, the results for the Emax in test [1] (setting [3]) and in test [2] (setting [4]) were 53% and 7%, respectively. Further, the “LXR alpha IP (nM)” value in test [2] is listed as “No IP”.
The compound `CC(C)N(C)C(=O)c1ccc(N2CCC3(CC2)C[C@H]3CCN(C)C(=O)[C@](O)(c2ccccc2)C(F)(F)F)cc1Cl` [Example 7-29, 2-chloro-N-isopropyl-N-methyl-4-((S)-1-(2-((R)-3,3,3-trifluoro-2-hydroxy-N-methyl-2-phenylpropanamido)ethyl)-6-azaspiro[2.5]octan-6-yl)benzamide] yielded an EC50 in test [1] of 611 nM. Also, the Emax was 40% in test [1] (setting [3]) and 5% in test [2] (setting [4]). Besides, the “LXR alpha IP (nM)” value in test [2] is given as “No IP”.
For `COc1cccc([C@@](O)(C(=O)Nc2ccc(C3CCN(c4ccc(C(=O)N(C)C)c(Cl)n4)CC3)cc2)C(F)(F)F)c1` [Example 10-1, (R)-2-chloro-N,N-dimethyl-6-(4-(4-(3,3,3-trifluoro-2-hydroxy-2-(3-methoxyphenyl)propanamido)phenyl)piperidin-1-yl)nicotinamide], in that order: 1350 nM, 65%, 0% and “No IP”.
For `COc1cccc([C@@](O)(C(=O)N(C)C2CC(CC3CCN(c4ccc(C(=O)N(C)C)c(C)n4)CC3)C2)C(F)(F)F)c1` (single isomer, unassigned) [Example 11-1], in that order: 727 nM, 42%, 0% and “No IP”.
`COc1cccc([C@@](O)(C(=O)NC2(CCC3CCN(c4ccc(C(=O)N(C)C)c(Cl)n4)CC3)CC2)C(F)(F)F)c1` [Example 8-1, (R)-2-chloro-N,N-dimethyl-6-(4-(2-(1-(3,3,3-trifluoro-2-hydroxy-2-(3-methoxyphenyl)propanamido)cyclopropyl)ethyl)piperidin-1-yl)nicotinamide] registered an EC50 in test [1] of 201 nM. In addition, the Emax in test [1] (setting [3]) stood at 82%; in test [2] (setting [4]) it was 16%. The “LXR alpha IP (nM)” value in test [2] is on record as “No IP”.
Take `COc1cccc([C@@](O)(C(=O)N(C)CCCC2CCN(c3ccc(C(=O)N4CC(NC(=O)OC(C)(C)C)C4)c(Cl)n3)CC2)C(F)(F)F)c1` [Example 2-9, (R)-tert-butyl 1-(2-chloro-6-(4-(3-(3,3,3-trifluoro-2-hydroxy-2-(3-methoxyphenyl)-N-methylpropanamido)propyl)piperidin-1-yl)nicotinoyl) azetidin-3-ylcarbamate]: the EC50 in test [1] came out at 9 nM; in test [2], 164 nM. Moreover, the Emax in test [1] (setting [3]) is 65%; in test [2] (setting [4]), 45%.
Compound `COc1cccc([C@@](O)(C(=O)N(C)CCCC2CCN(c3ncc(C(=O)N(C)C)cc3Cl)CC2)C(F)(F)F)c1` [Example 2-22, (R)-5-chloro-N,N-dimethyl-6-(4-(3-(3,3,3-trifluoro-2-hydroxy-2-(3-methoxyphenyl)-N-methylpropanamido)propyl)piperidin-1-yl)nicotinamide] came in with an EC50 in test [1] of 1120 nM. In addition, the Emax in test [1] (setting [3]) was 32%; in test [2] (setting [4]) it was 2%. In addition, the “LXR alpha IP (nM)” value in test [2] is given as “No IP”.
Regarding `CN(C)C(=O)c1ccc(N2CCC3(CC2)CC3CCN(C)C(=O)[C@](O)(c2ccccc2)C(F)(F)F)cc1Cl` (stereo partly drawn) [Example 7-2, 2-chloro-N,N-dimethyl-4-(1-(2-((R)-3,3,3-trifluoro-2-hydroxy-N-methyl-2-phenylpropanamido)ethyl)-6-azaspiro[2.5]octan-6-yl)benzamide], the EC50 in test [1] came to 14 nM; in test [2], 534 nM. The Emax in test [1] (setting [3]) amounted to 73%; in test [2] (setting [4]) it was 44%.
In turn, `COc1cccc(C2(C(=O)N(C)CCCC3CCN(c4ccc(C(=O)N(C)C)c(Cl)n4)CC3)CCOCC2)c1` [Example 1-44, 2-chloro-6-(4-(3-(4-(3-methoxyphenyl)-N-methyltetrahydro-2H-pyran-4-carboxamido)propyl)piperidin-1-yl)-N,N-dimethylnicotinamide] came in with an EC50 in test [1] of 822 nM. Besides, the Emax in test [1] (setting [3]) came out at 39%; in test [2] (setting [4]), 0%. For the same compound, in test [2], the “LXR alpha IP (nM)” value was “No IP”.
The compound `COc1cccc([C@@](O)(C(=O)N(C)CCCC2(C)CCN(c3ccc(C(=O)N(C)C)c(Cl)c3)CC2)C(F)(F)F)c1` [Example 9-6, (R)-2-chloro-N,N-dimethyl-4-(4-methyl-4-(3-(3,3,3-trifluoro-2-hydroxy-2-(3-methoxyphenyl)-N-methylpropanamido)propyl)piper-idin-1-yl)benzamide] showed an EC50 in test [1] of 136 nM. In addition, the figures for the Emax in test [1] (setting [3]) and in test [2] (setting [4]) were 20% and 0%, respectively. The “LXR alpha IP (nM)” value in test [2] is listed as “No IP”.
As to `CNC(=O)c1ccc(N2CCC([C@H]3C[C@H]3CNC(=O)[C@](O)(c3ccccc3)C(F)(F)F)CC2)nc1Cl` [Example 15-12, 2-chloro-N-methyl-6-(4-((1R,2R)-2-(((R)-3,3,3-trifluoro-2-hydroxy-2-phenylpropanamido)methyl)cyclopropyl)piperidin-1-yl)nicotinamide], the EC50 in test [1] turned out to be 1330 nM; in test [2], 3780 nM. Moreover, the figures for the Emax in test [1] (setting [3]) and in test [2] (setting [4]) were 39% and 29%, respectively.
As for `CNC(=O)c1ccc(N2CCC3(CC2)CC3CCN(C)C(=O)[C@](O)(c2cccc(OC)c2)C(F)(F)F)nc1Cl` (stereo in doubt) [Example 7-20, 2-chloro-N-methyl-6-((R)-1-(2-((R)-3,3,3-trifluoro-2-hydroxy-2-(3-methoxyphenyl)-N-methylpropanamido)ethyl)-6-azaspiro[2.5]octan-6-yl)nicotinamide], the EC50 in test [1] is 36 nM; in test [2] it was 1180 nM. Also, the results for the Emax in test [1] (setting [3]) and in test [2] (setting [4]) were 60% and 40%, respectively.
On to `COc1cccc([C@@](O)(C(=O)N(C)CCCC2CCN(c3ccc(C(=O)N(C)C)c(Cl)n3)CC2)C(F)F)c1` [Example 1-53, (R)-2-chloro-6-(4-(3-(3,3-difluoro-2-hydroxy-2-(3-methoxyphenyl)-N-methylpropanamido)propyl)piperidin-1-yl)-N,N-dimethylnicotinamide], for which the midpoint of the response in test [1], the EC50, lay at 580 nM. For the same compound, the Emax in test [1] (setting [3]) stood at 43%; in test [2] (setting [4]) it was 0%. The “LXR alpha IP (nM)” value in test [2] is given as “No IP”.
`COc1cccc([C@](O)(C(=O)N(C)C[C@@H]2C[C@@H]2CC2CCN(c3ccc(C(=O)N(C)C)c(Cl)n3)CC2)C(F)(F)F)c1` [Example 18-3, 2-chloro-N,N-dimethyl-6-(4-(((1S,2R)-2-(((S)-3,3,3-trifluoro-2-hydroxy-2-(3-methoxyphenyl)-N-methylpropanamido)methyl)cyclopropyl)methyl)piperidin-1-yl)nicotinamide] displayed an EC50 in test [1] of 518 nM. For the same compound, the Emax was 25% in test [1] (setting [3]) and 0% in test [2] (setting [4]). For the same compound, the “LXR alpha IP (nM)” value in test [2] was “No IP”.
As for `CN(C)C(=O)c1ccc(N2CCC(CCCNC(=O)C(O)(c3ccccc3)C(F)(F)F)CC2)nc1Cl` (centres unmarked) [Example 5-6, 2-chloro-N,N-dimethyl-6-(4-(3-(3,3,3-trifluoro-2-hydroxy-2-phenylpropanamido)propyl)piperidin-1-yl)nicotinamide], the EC50 in test [1] was determined as 267 nM; in test [2], 3700 nM. Besides, the Emax worked out at 105% in test [1] (setting [3]) and 23% in test [2] (setting [4]).

Source of the values: patent US10961215B2, “N-aryl and N-heteroaryl piperidine derivatives as liver X receptor beta agonists, compositions, and their use” (Merck Sharp & Dohme Corp., priority 2016, dated 2021).
